Values after ≈ are worked out from the molar mass of the structure shown. Where two headings read alike, the source gives them in different places.
Key:
[1] = system: Penicillium chrysogenum IFO 4626; assay: Antimicrobial spectrum, agar dilution method (in vitro); assay type: cell-based; conditions: IFO4626, medium A, 28 °C, 40 hr, read-out: Minimal inhibitory concentration
[2] = system: Sclerotinia sclerotiorum IFO 9395; assay: as above; assay type: cell-based; conditions: IFO9395, medium A, 28 °C, 40 hr, read-out: Minimal inhibitory concentration
[3] = system: Guignardia laricina IFO 7886; assay: as above; assay type: cell-based; conditions: Neofusicoccum laricinum, IFO7886; medium A, 28 °C, 88 hr; read-out: Minimal inhibitory concentration
[4] = system: Saccharomyces cerevisiae IFO 0209; assay: as above; assay type: cell-based; conditions: IFO0209, medium A, 28 °C, 40 hr, read-out: Minimal inhibitory concentration
[5] = system: Rhodotorula rubra IFO 0870; assay: as above; assay type: cell-based; conditions: IFO0870, medium A, 28 °C, 40 hr, read-out: Minimal inhibitory concentration
[6] = system: Bacillus subtilis IFO 3513; assay: as above; assay type: cell-based; conditions: IFO3513, medium B, 37 °C, 20 hr, read-out: Minimal inhibitory concentration
Text: (§1) B 0.5% of Ehrlich's meat extract, 0.5% of polypeptone, 0.5% of NaCl, 1.5%

[7] = system: Escherichia coli IFO 12734; assay: as above; assay type: cell-based; conditions: IFO12734, medium B, 37 °C, 20 hr, read-out: Minimal inhibitory concentration
Text: as §1

[8] = system: Proteus vulgaris IFO 3045; assay: as above; assay type: cell-based; conditions: IFO3045, medium B, 37 °C, 20 hr, read-out: Minimal inhibitory concentration
Text: as §1

[9] = system: Mycobacterium phlei IFO 3158; assay: as above; assay type: cell-based; conditions: Mycolicibacterium phlei, IFO3158; medium C, 37 °C, 40 hr; read-out: Minimal inhibitory concentration
Text: (§2) C 3.0% of glycerin, 0.5% of Ehrlich's meat extract, 0.5% of NaCl, 1.5% of […]

[10] = system: Mycobacterium smegmatis ATCC 607; assay: as above; assay type: cell-based; conditions: Mycolicibacterium smegmatis, ATCC607; medium C, 37 °C, 40 hr; read-out: Minimal inhibitory concentration
Text: as §2

[11] = system: fungi of late blight of tomato; assay type: in vivo; conditions: tomato plants in pots, 4 days, nontreated group taken as 100%
[12] = system: powdery mildew of barley; assay: Controlling effect against powdery mildew of barley (method of Iwasa et al.); assay type: in vivo; conditions: in words
Text: The controlling effect against powdery mildew of barley was investigated according to the method of Iwasa, et. al. (The Journal of Antibiotics, vol. 31, No. 6, pp. 512, 1978).

[13] = system: Totranychus urticae; assay: Miticidal effect on kidney bean seedlings; assay type: in vivo; conditions: 500 ppm, 28 °C, 20 ml per pot
Description: The test on the miticidal effect was carried out. The seedlings (5 days after germination) of kidney bean grown in pots (9 cm in diameter) were inoculated on their main leaves with about 50 female adults of Totranychus urticae, and the test chemical solution was sprayed in 20 ml quantities per pot by means of a spray gun. After spraying, the pots were placed in a phytotron (28° C.), and a number of surving mites on leaves was investigated at the 5th and 7th day to determine a decrease rate against a number of mites immediately before spraying [=(number of mites tested-number of surving mites)/(number of mites tested)×100].

[14] = Solubilities; assay type: physicochemical; conditions: free base
[15] = in vivo; conditions: mouse
[16] = system: Cochlioborus miyabeanus IFO 5277; assay: Antimicrobial spectrum, agar dilution method (in vitro); conditions: 40 h, read-out: Minimal inhibitory concentration
[17] = system: some bacteria; assay: Antimicrobial spectrum, agar dilution method (in vitro), summary in words; assay type: cell-based

Question: What does the source list for `N=C(N)NCC(O)CC(O)(C(=O)O)C1OC(n2ccc(N)nc2=O)C=CC1NC(=O)C(N)CO` (stereo not shown) [Example 2]?
Answer: MIC [1]: 250 µg/mL (≈ 516 µM); MIC [2]: 250 µg/mL (≈ 516 µM); MIC [3]: 250 µg/mL (≈ 516 µM); MIC [4]: 100 µg/mL (≈ 206 µM); MIC [5]: < 10 µg/mL; MIC [6]: 250 µg/mL (≈ 516 µM); MIC [7]: 250 µg/mL (≈ 516 µM); MIC [8]: > 500 µg/mL; MIC [9]: 50 µg/mL (≈ 103 µM); MIC [10]: 100 µg/mL (≈ 206 µM); Percent area of lesions ([11]; 150 ppm): 55%; Percent area of lesions ([11]; 200 ppm): 0%; Percent area of lesions ([11]; 250 ppm): 0%; Percent area of lesions ([11]; 300 ppm): 0%; Percent area of lesions ([11]; 500 ppm): 0%; controlling effect against powdery mildew of barley [12]: greatly effective; Decrease rate against number of mites immediately before spraying, 5th day [13]: 100; Decrease rate against number of mites immediately before spraying, 7th day [13]: 100; solubility in organic solvents [14]: less soluble; solubility in water [14]: Easily soluble; LD50 ([15]; ip): > 200 mg/kg; LD50 ([15]; iv): > 100 mg/kg; LD50 ([15]; sc): > 200 mg/kg; MIC [16]: 100 µg/mL (≈ 206 µM)

Question: With `N=C(N)NCC(O)CC(O)(C(=O)O)C1OC(n2cc(Br)c(N)nc2=O)C=CC1NC(=O)C(N)CO` (stereo not shown) [Example 5] as the compound, how does the MIC [1] read?
Answer: 250 µg/mL (≈ 444 µM)

Question: What about the MIC [2] of the same compound?
Answer: 500 µg/mL (≈ 888 µM)

Question: What about the MIC [3] of the same compound?
Answer: 250 µg/mL (≈ 444 µM)

Question: What about the MIC [4] of the same compound?
Answer: 100 µg/mL (≈ 178 µM)

Question: And the MIC [5]?
Answer: < 10 µg/mL

Question: What about the MIC [6] of the same compound?
Answer: 250 µg/mL (≈ 444 µM)

Question: What about the MIC [7] of the same compound?
Answer: 100 µg/mL (≈ 178 µM)

Question: What about the MIC [8] of the same compound?
Answer: 250 µg/mL (≈ 444 µM)

Question: What about the MIC [9] of the same compound?
Answer: 25 µg/mL (≈ 44.4 µM)

Question: And the MIC [10]?
Answer: 25 µg/mL (≈ 44.4 µM)

Question: What about the “antimicrobial activity against some bacteria” value [17] of the same compound?
Answer: remarkably strong antimicrobial activity

Question: What about the “Percent area of lesions” value ([11]; 150 ppm) of the same compound?
Answer: 100%

Question: What about the “Percent area of lesions” value ([11]; 200 ppm) of the same compound?
Answer: 11%

Question: And the “Percent area of lesions” value ([11]; 250 ppm)?
Answer: 0%

Question: And the “Percent area of lesions” value ([11]; 300 ppm)?
Answer: 0%

Question: And the “Percent area of lesions” value ([11]; 500 ppm)?
Answer: 0%

Question: What about the “controlling effect against powdery mildew of barley” value (“controlling effect” for short) [12] of the same compound?
Answer: greatly effective

Question: What about the “Decrease rate against number of mites immediately before spraying, 5th day” value (“Decrease rate against number … 5th day” for short) [13] of the same compound?
Answer: 100

Question: What about the “Decrease rate against number of mites immediately before spraying, 7th day” value (shortened to “Decrease rate against number … 7th day”) [13] of the same compound?
Answer: 100

Question: What about the “solubility in organic solvents” value [14] of the same compound?
Answer: less soluble

Question: And the solubility in water [14]?
Answer: Easily soluble

Question: And the LD50 ([15]; ip)?
Answer: > 200 mg/kg

Question: What about the LD50 ([15]; iv) of the same compound?
Answer: > 100 mg/kg

Question: What about the LD50 ([15]; sc) of the same compound?
Answer: > 200 mg/kg

Question: And the MIC [16]?
Answer: 100 µg/mL (≈ 178 µM)

Question: For `Cc1cn(C2C=CC(NC(=O)C(N)CO)C(C(O)(CC(O)CNC(=N)N)C(=O)O)O2)c(=O)nc1N` (stereo not shown) [Example 6], which MIC [1] is on record?
Answer: 250 µg/mL (≈ 502 µM)

Question: And the MIC [2]?
Answer: 250 µg/mL (≈ 502 µM)

Question: What about the MIC [3] of the same compound?
Answer: 250 µg/mL (≈ 502 µM)

Question: And the MIC [4]?
Answer: 100 µg/mL (≈ 201 µM)

Question: What about the MIC [5] of the same compound?
Answer: < 10 µg/mL

Question: And the MIC [6]?
Answer: 250 µg/mL (≈ 502 µM)

Question: What about the MIC [7] of the same compound?
Answer: 250 µg/mL (≈ 502 µM)

Question: And the MIC [8]?
Answer: > 500 µg/mL

Question: What about the MIC [9] of the same compound?
Answer: 50 µg/mL (≈ 100 µM)

Question: What about the MIC [10] of the same compound?
Answer: 100 µg/mL (≈ 201 µM)

Question: And the “Percent area of lesions” value ([11]; 150 ppm)?
Answer: 100%

Question: And the “Percent area of lesions” value ([11]; 200 ppm)?
Answer: 17%

Question: What about the “Percent area of lesions” value ([11]; 250 ppm) of the same compound?
Answer: 0%

Question: And the “Percent area of lesions” value ([11]; 300 ppm)?
Answer: 0%

Question: What about the “Percent area of lesions” value ([11]; 500 ppm) of the same compound?
Answer: 0%

Question: What about the “controlling effect” value [12] of the same compound?
Answer: greatly effective

Question: And the “Decrease rate against number … 5th day” value [13]?
Answer: 100

Question: What about the “Decrease rate against number … 7th day” value [13] of the same compound?
Answer: 100

Question: What about the “solubility in organic solvents” value [14] of the same compound?
Answer: less soluble

Question: What about the solubility in water [14] of the same compound?
Answer: Easily soluble

Question: And the LD50 ([15]; ip)?
Answer: > 200 mg/kg

Question: What about the LD50 ([15]; iv) of the same compound?
Answer: > 100 mg/kg

Question: What about the LD50 ([15]; sc) of the same compound?
Answer: > 200 mg/kg

Question: What about the MIC [16] of the same compound?
Answer: 100 µg/mL (≈ 201 µM)

Question: For `N=C(N)NCC(O)CC(O)(C(=O)O)C1OC(n2cc(F)c(N)nc2=O)C=CC1NC(=O)C(N)CO` (stereo not shown) [Example 7], which MIC [1] is on record?
Answer: 250 µg/mL (≈ 498 µM)

Question: And the MIC [2]?
Answer: 250 µg/mL (≈ 498 µM)

Question: What about the MIC [3] of the same compound?
Answer: 250 µg/mL (≈ 498 µM)

Question: And the MIC [4]?
Answer: 100 µg/mL (≈ 199 µM)

Question: And the MIC [5]?
Answer: < 10 µg/mL

Question: And the MIC [6]?
Answer: 250 µg/mL (≈ 498 µM)

Question: What about the MIC [7] of the same compound?
Answer: 250 µg/mL (≈ 498 µM)

Question: And the MIC [8]?
Answer: > 500 µg/mL

Question: What about the MIC [9] of the same compound?
Answer: 25 µg/mL (≈ 49.8 µM)

Question: And the MIC [10]?
Answer: 100 µg/mL (≈ 199 µM)

Question: And the “Percent area of lesions” value ([11]; 150 ppm)?
Answer: 100%

Question: And the “Percent area of lesions” value ([11]; 200 ppm)?
Answer: 16%

Question: And the “Percent area of lesions” value ([11]; 250 ppm)?
Answer: 0%

Question: And the “Percent area of lesions” value ([11]; 300 ppm)?
Answer: 0%

Question: And the “Percent area of lesions” value ([11]; 500 ppm)?
Answer: 0%

Question: What about the “controlling effect” value [12] of the same compound?
Answer: greatly effective

Question: What about the “Decrease rate against number … 5th day” value [13] of the same compound?
Answer: 100

Question: What about the “Decrease rate against number … 7th day” value [13] of the same compound?
Answer: 100

Question: And the “solubility in organic solvents” value [14]?
Answer: less soluble

Question: And the solubility in water [14]?
Answer: Easily soluble

Question: And the LD50 ([15]; ip)?
Answer: > 200 mg/kg

Question: And the LD50 ([15]; iv)?
Answer: > 100 mg/kg

Question: What about the LD50 ([15]; sc) of the same compound?
Answer: > 200 mg/kg

Question: And the MIC [16]?
Answer: 100 µg/mL (≈ 199 µM)

Reference: patent publication US4296107A, “Mildiomycin analogs and a method of production” (Takeda Chemical Industries, Ltd., priority 1979, dated 1981)
